The structures appear in SMILES notation.

The conditions of the data set: 1.0% DMSO, 24-hour incubation at ambient temperature, maximum theoretical 100 μM; for pH 2 solubility: 0.1N HCl, first value of the cell; for pH 7 solubility: 1×PBS buffer (pH 7.4), second value of the cell.

With `CC(C)(C#Cc1ccc(-c2ccc(Cl)c3c(N(C(=O)NCCOP(=O)(O)O)S(C)(=O)=O)nn(CC(F)(F)F)c23)c([C@H](Cc2cc(F)cc(F)c2)NC(=O)Cn2nc(C(F)(F)F)c3c2C(F)(F)[C@@H]2C[C@H]32)n1)S(C)(=O)=O` [Compound 41, 2-(3-(4-chloro-7-(2-((S)-1-(2-((3bS,4aR)-5,5-difluoro-3-(trifluoromethyl)-3b,4,4a,5-tetrahydro-1H-cyclopropa[3,4]cyclopenta[1,2-c]pyrazol-1-yl)acetamido)-2-(3,5-difluorophenyl)ethyl)-6-(3-methyl-3-(methylsulfonyl)but-1-yn-1-yl)pyridin-3-yl)-1-(2,2,2-trifluoroethyl)-1H-indazol-3-yl)-3-(methylsulfonyl)ureido)ethyl dihydrogen phosphate], the “pH 2 solubility” value was found to be 3 μM and the “pH 7 solubility” value is reported as 17 μM.
Take `CC(C)(C#Cc1ccc(-c2ccc(Cl)c3c(N(C(=O)OCOC(=O)/C=C/C(=O)O)S(C)(=O)=O)nn(CC(F)(F)F)c23)c([C@H](Cc2cc(F)cc(F)c2)NC(=O)Cn2nc(C(F)(F)F)c3c2C(F)(F)[C@@H]2C[C@H]32)n1)S(C)(=O)=O` [Compound 93, (E)-4-((((4-chloro-7-(2-((S)-1-(2-((3bS,4aR)-5,5-difluoro-3-(trifluoromethyl)-3b,4,4a,5-tetrahydro-1H-cyclopropa[3,4]cyclopenta[1,2-c]pyrazol-1-yl)acetamido)-2-(3,5-difluorophenyl)ethyl)-6-(3-methyl-3-(methylsulfonyl)but-1-yn-1-yl)pyridin-3-yl)-1-(2,2,2-trifluoroethyl)-1H-indazol-3-yl)(methylsulfonyl)carbamoyl)oxy)methoxy)-4-oxobut-2-enoic acid]: the “pH 2 solubility” value was 1 μM and the “pH 7 solubility” value worked out at 22 μM.
Turning to `CC(C)(C#Cc1ccc(-c2ccc(Cl)c3c(N(C(=O)C(=O)N[C@@H](CC(=O)O)C(=O)O)S(C)(=O)=O)nn(CC(F)(F)F)c23)c([C@H](Cc2cc(F)cc(F)c2)NC(=O)Cn2nc(C(F)(F)F)c3c2C(F)(F)[C@@H]2C[C@H]32)n1)S(C)(=O)=O` [Compound 12, (2-(N-(4-chloro-7-(2-((S)-1-(2-((3bS,4aR)-5,5-difluoro-3-(trifluoromethyl)-3b,4,4a,5-tetrahydro-1H-cyclopropa[3,4]cyclopenta[1,2-c]pyrazol-1-yl)acetamido)-2-(3,5-difluorophenyl)ethyl)-6-(3-methyl-3-(methylsulfonyl)but-1-yn-1-yl)pyridin-3-yl)-1-(2,2,2-trifluoroethyl)-1H-indazol-3-yl)methylsulfonamido)-2-oxoacetyl)-L-aspartic acid], the “pH 2 solubility” value is 10/10 μM and the “pH 7 solubility” value is listed as 10/10 μM.
With `CN(CCNC(=N)N)C(=O)N(c1nn(CC(F)(F)F)c2c(-c3ccc(C#CC(C)(C)S(C)(=O)=O)nc3[C@H](Cc3cc(F)cc(F)c3)NC(=O)Cn3nc(C(F)(F)F)c4c3C(F)(F)[C@@H]3C[C@H]43)ccc(Cl)c12)S(C)(=O)=O` [Compound 75, N—((S)-1-(3-(4-chloro-3-(N-((2-guanidinoethyl)(methyl)carbamoyl)methylsulfonamido)-1-(2,2,2-trifluoroethyl)-1H-indazol-7-yl)-6-(3-methyl-3-(methylsulfonyl)but-1-yn-1-yl)pyridin-2-yl)-2-(3,5-difluorophenyl)ethyl)-2-((3bS,4aR)-5,5-difluoro-3-(trifluoromethyl)-3b,4,4a,5-tetrahydro-1H-cyclopropa[3,4]cyclopenta[1,2-c]pyrazol-1-yl)acetamide], the “pH 2 solubility” value is 16 μM and the “pH 7 solubility” value came out at 13 μM.

These data come from patent US12404262B2 (priority 2021, dated 2025).
